The record followed here is patent US11098061B2 (Celgene CAR LLC, priority 2013, dated 2021).

One assay concerns the target MK2 (Homo sapiens (Human), UniProt P49137). Put plainly: MK2 modification assessment by whole protein mass spectrometry. Format: binding. Conditions: intact MK2, 60 min, 10-fold excess of compound to protein. How it is done: Modification of MK2 is measured by whole protein MS analysis. […] 5 μL aliquots of the samples were diluted with 15 μL of 0.2% TFA prior to micro C4 ZipTipping directly onto the MALDI target using sinapinic acid as the desorption matrix (10 mg/ml in 0.1% TFA:Acetonitrile 50:50). Analysis was performed on a AB Sciex 4800 MALDI TOF/TOF retro fitted with an HM2 detector (CovalX). Percent modification of target MK2 (i.e., the percent of total MK2 modified by the test compound) for each compound was calculated by subtracting the centroid mass of the compound treated MK2 from the centroid mass of the control MK2 and dividing that value with the mass of the compound.

Assay [1] deals with p38a activated, mitogen-activated protein kinase-activated protein kinase 2 (MAPKAP-K2 or MK-2) enzyme (Homo sapiens (Human), UniProt P49137). Put plainly: MK2 Omnia continuous-read kinase assay for compound potency. The format is biochemical. The settings on record: [MK-2]=0.4 nM, [ATP]=1.0 mM, [ST3-Sox]=10 μM. The source says:
The protocol below describes a continuous-read kinase assay optimized to measure potency of compounds against p38a activated, mitogen-activated protein kinase-activated protein kinase 2 (MAPKAP-K2 or MK-2) enzyme. The mechanics of the assay platform are best described by the vendor (Invitrogen, Carlsbad, Calif.) on their website at the following URL: invitrogen.com/search/global/searchAction. action?resultPage=1 &resultsPerPage=15 &query=om nia&personaFilterTerm=Support+%26+Troubleshoot
Kinase reactions were started with the addition of 40 μL of MK-2 enzyme and monitored every 71 seconds for 30-240 minutes at λex360/λem485 in a Synergy^2, Synergy^4 or Synergy H^4 plate reader from BioTek (Winooski, Vt.). […] Initial velocity (0 minutes to +30 minutes) from each reaction was estimated from the slope of a plot of relative fluorescence units vs time (minutes) and normalized to the no enzyme and no inhibitor control groups for % Inhibition. The resulting % Inhibition values were then plotted against inhibitor concentration to estimate IC50 from log[Inhibitor] vs Response, Variable Slope model in GraphPad Prism from GraphPad Software (San Diego, Calif.).
[MK-2]=0.4 nM, [ATP]=1.0 mM and [ST3-Sox]=10 μM (ATP ^appKM=8-10 μM)

Each structure is given as a SMILES string. pIC50: −log10 of the molar value.

Sequence of p38a activated, mitogen-activated protein kinase-activated protein kinase 2 (MAPKAP-K2 or MK-2) enzyme (P49137 whole entry): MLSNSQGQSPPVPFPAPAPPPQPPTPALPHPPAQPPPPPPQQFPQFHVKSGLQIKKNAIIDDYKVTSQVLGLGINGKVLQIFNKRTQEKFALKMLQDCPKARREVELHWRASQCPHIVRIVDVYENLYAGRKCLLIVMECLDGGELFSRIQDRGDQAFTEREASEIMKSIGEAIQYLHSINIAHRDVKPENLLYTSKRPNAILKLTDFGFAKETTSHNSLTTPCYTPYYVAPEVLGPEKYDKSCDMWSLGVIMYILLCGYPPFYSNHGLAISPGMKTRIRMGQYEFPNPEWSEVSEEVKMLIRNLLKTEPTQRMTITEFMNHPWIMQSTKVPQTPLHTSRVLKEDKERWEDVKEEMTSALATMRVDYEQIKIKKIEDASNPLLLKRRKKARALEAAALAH
Sequence of MK2 (P49137 whole entry): as above

Usually pIC50 stands for −log10 of the IC50, conventionally taken in molar units. Consider `C=CC(=O)N1CCC[C@H](NC(=O)c2ccc3cc4n(c3c2)C2(CCC2)CNC4=O)C1` [Compound V-47, (S)—N-(1-acryloylpiperidin-3-yl)-1′-oxo-2′,3′-dihydro-1′H-spiro[cyclobutane-1,4′-pyrazino[1,2-a]indole]-7′-carboxamide], for which the “MK2 Mass Mod” value on MK2 was “G (mass modification ≤30%)”. In addition, in assay [1], the negative-log IC50 (pIC50) is less than 6.00.

Turning to `C=CC(=O)N1CCOc2ncc(-c3cc4c(cn3)CCc3c-4[nH]c4c3C(=O)NCC4)cc21` [II-18, 2-(1-acryloyl-2,3-dihydro-1H-pyrido[2,3-b][1,4]oxazin-7-yl)-8,9,10,11-tetrahydro-SH-pyrido[3′,4′:4,5]pyrrolo[2,3-f]isoquinolin-7(6H)-one], at MK2, the “MK2 Mass Mod” value is reported as “E (mass modification of ≥70%)”. In addition, the pIC50 in assay [1] is more than 7.00.

As for `C=CC(=O)NC1CS(=O)(=O)CC1NC(=O)c1ccc2sc3c(c2c1)NC[C@@H](C)NC3=O` (stereo partly shown) [III-49], the “MK2 Mass Mod” value at MK2 was “G (mass modification ≤30%)”. Further, the pIC50 in assay [1] is more than 7.00.

`C=CC(=O)Nc1cc(NC(=O)c2ccc3cc4n(c3c2)C2(CCC2)CNC4=O)ccc1C` [Compound V-53, N-(3-acrylamido-4-methylphenyl)-1′-oxo-2′,3′-dihydro-1′H-spiro[cyclobutane-1,4′-pyrazino[1,2-a]indole]-7′-carboxamide]: the “MK2 Mass Mod” value on MK2 was “E (mass modification of ≥70%)”. For the same compound, the pIC50 in assay [1] is less than 6.00.

As for `C=CC(=O)N[C@H]1CCCC[C@H]1NC(=O)c1ccc2cc3n(c2c1)C1(CCC1)CNC3=O` (racemic) [Compound V-46, Cis-N-(2-acrylamidocyclohexyl)-1′-oxo-2′,3′-dihydro-1′H-spiro[cyclobutane-1,4′-pyrazino[1,2-a]indole]-7′-carboxamide (racemic)], the “MK2 Mass Mod” value on MK2 is on record as “G (mass modification ≤30%)”. In addition, the negative logarithm of the IC50 (pIC50) in assay [1] was less than 6.00.

`C=CC(=O)Nc1cc(-c2cc3c(cn2)CCc2c-3[nH]c3c2C(=O)NCC3)ccc1OCCCNC(=O)CCCC(=O)NCCCOCCOCCOCCCNC(=O)CCCC[C@H]1SC[C@H]2NC(=O)N[C@H]21` [Probe 1]: the pIC50 in assay [1] was more than 7.00.

For `C=CC(=O)N1CCc2ccc(NC(=O)c3ccc4cc5n(c4c3)CCNC5=O)cc21` [Compound V-9, N-(1-acryloylindolin-6-yl)-1-oxo-1,2,3,4-tetrahydropyrazino[1,2-a]indole-7-carboxamide], at MK2, the “MK2 Mass Mod” value is “E (mass modification of ≥70%)”. Also, in assay [1], the pIC50 is 6.30 to 7.00.

On to `C[C@@H]1CNc2c(sc3ccc(C(=O)Nc4ccc5c(c4)N(C(=O)/C=C/CN(C)C)CCO5)cc23)C(=O)N1` [III-9, (R,E)-N-(4-(4-(dimethylamino)but-2-enoyl)-3,4-dihydro-2H-benzo[b][1,4]oxazin-6-yl)-3-methyl-5-oxo-2,3,4,5-tetrahydro-1H-benzo[4,5]thieno[3,2-e][1,4]diazepine-9-carboxamide], for which the “MK2 Mass Mod” value on MK2 is “F (mass modification of 31-69%)”. Moreover, the negative-log IC50 (pIC50) in assay [1] is less than 6.00.

Consider `C=CC(=O)Nc1c(C)ccc2oc(-c3ccc4cc5n(c4c3)C3(CCC3)CNC5=O)nc12` [Compound V-12, N-(5-methyl-2-(1′-oxo-2′,3′-dihydro-1′H-spiro[cyclobutane-1,4′-pyrazino [1,2-a]indol]-7′-yl)benzo[d]oxazol-4-yl)acrylamide], for which, in assay [1], the negative-log IC50 (pIC50) was less than 6.00.

For the compound `C=CC(=O)N1CC(C)(C)Oc2ccc(-c3ccc4c(ccc5sc6c(c54)NC[C@@H](C)NC6=O)n3)cc21` [III-55, (R)-3-(4-acryloyl-2,2-dimethyl-3,4-dihydro-2H-benzo[b][1,4]oxazin-6-yl)-10-methyl-9,10,11,12-tetrahydro-8H-[1,4]diazepino[5′,6′:4,5]thieno[3,2-f]quinolin-8-one], at MK2, the “MK2 Mass Mod” value was “G (mass modification ≤30%)”. For the same compound, the pIC50 in assay [1] is more than 7.00.

As for `C=CC(=O)Nc1cccc(NC(=O)c2ccc3cc4n(c3c2)CCNC4=O)c1` [Compound V-7, N-(3-acrylamidophenyl)-1-oxo-1,2,3,4-tetrahydropyrazino[1,2-a]indole-7-carboxamide], at MK2, the “MK2 Mass Mod” value was “F (mass modification of 31-69%)”. The negative logarithm of the IC50 (pIC50) in assay [1] is less than 6.00.

For the compound `CC(C)=CC(=O)COc1cc(NC(=O)c2ccc3sc4c(c3c2)NC[C@@H](C)NC4=O)ccc1F` [III-2, (R)—N-(4-fluoro-3-((4-methyl-2-oxopent-3-en-1-yl)oxy)phenyl)-3-methyl-5-oxo-2,3,4,5-tetrahydro-1H-benzo[4,5]thieno[3,2-e][1,4]diazepine-9-carboxamide], on MK2, the “MK2 Mass Mod” value is given as “G (mass modification ≤30%)”. Besides, the pIC50 in assay [1] was less than 6.00.

For `C=CC(=O)Nc1cc(-c2cc(-c3cc4n(c3)CCNC4=O)ccn2)ccc1OC` [V-c-1, N-(2-methoxy-5-(4-(1-oxo-1,2,3,4-tetrahydropyrrolo[1,2-a]pyrazin-7-yl)pyridin-2-yl)phenyl)acrylamide], the “MK2 Mass Mod” value on MK2 is “F (mass modification of 31-69%)”.

As for `C=CC(=O)NC1CCCCC1NC(=O)c1ccc2cc3n(c2c1)C1(CCC1)CNC3=O` (racemic) [Compound V-64, trans-(2-acrylamidocyclohexyl)-1′-oxo-2′,3′-dihydro-1′H-spiro[cyclobutane-1,4′-pyrazino[1,2-a]indole]-7′-carboxamide (racemic)], the pIC50 in assay [1] was less than 6.00.

With `C=CC(=O)N1CCOc2ccc(-c3nccc(-c4cc5c([nH]4)CCNC5=O)n3)cc21` [II-25, 2-(2-(4-acryloyl-3,4-dihydro-2H-benzo[b][1,4]oxazin-6-yl)pyrimidin-4-yl)-6,7-dihydro-1H-pyrrolo[3,2-c]pyridin-4(5H)-one], the “MK2 Mass Mod” value at MK2 is recorded as “E (mass modification of ≥70%)”. Besides, the negative-log IC50 (pIC50) in assay [1] was more than 7.00.

In the case of `C=CC(=O)Nc1cc(NC(=O)c2ccc3cc4n(c3c2)CCNC4=O)ccc1N1CCN(CC)CC1` [Compound V-1, N-(3-acrylamido-4-(4-ethylpiperazin-1-yl)phenyl)-1-oxo-1,2,3,4-tetrahydropyrazino[1,2-a]indole-7-carboxamide], on MK2, the “MK2 Mass Mod” value is recorded as “E (mass modification of ≥70%)”. Besides, the pIC50 in assay [1] is 6.00 to 6.30.

On to `C=CC(=O)Nc1cccc2oc(-c3ccc4cc5n(c4c3)CCNC5=O)nc12` [Compound V-31, N-(2-(1-oxo-1,2,3,4-tetrahydropyrazino[1,2-a]indol-7-yl)benzo[d]oxazol-4-yl)acrylamide], for which the “MK2 Mass Mod” value on MK2 is given as “E (mass modification of ≥70%)”. In addition, the pIC50 in assay [1] is 6.00 to 6.30.

Turning to `C=CC(=O)Nc1cc(-c2nccc(-c3cc4c([nH]3)CCNC4=O)n2)ccc1OCCOC` [II-22, N-(2-(2-methoxyethoxy)-5-(4-(4-oxo-4,5,6,7-tetrahydro-1H-pyrrolo[3,2-c]pyridin-2-yl)pyrimidin-2-yl)phenyl)acrylamide], the “MK2 Mass Mod” value at MK2 is reported as “E (mass modification of ≥70%)”. Further, in assay [1], the pIC50 is more than 7.00.

Regarding `C=CC(=O)Nc1ccc2[nH]c(-c3ccc4cc5n(c4c3)C3(CCC3)CNC5=O)nc2c1` [Compound V-59, N-(2-(1′-oxo-2′,3′-dihydro-1′H-spiro[cyclobutane-1,4′-pyrazino [1,2-a]indol]-7′-yl)-1H-benzo[d]imidazol-5-yl)acrylamide], at MK2, the “MK2 Mass Mod” value is given as “G (mass modification ≤30%)”. Moreover, the negative-log IC50 (pIC50) in assay [1] is more than 7.00.

Consider `C=CC(=O)Nc1ccccc1Nc1nccc(-c2cc3c([nH]2)C2(CCCNC2)CNC3=O)n1` (racemic) [Compound I-5, N-(2-((4-(4′-oxo-1′,4′,5′,6′-tetrahydrospiro[piperidine-3,7′-pyrrolo[3,2-c]pyridin]-2′-yl)pyrimidin-2-yl)amino)phenyl)acrylamide], for which, at MK2, the “MK2 Mass Mod” value is on record as “F (mass modification of 31-69%)”. Besides, in assay [1], the negative-log IC50 (pIC50) is less than 6.00.

Turning to `C=CC(=O)N1CCC[C@@H](NC(=O)c2ccc3cc4n(c3c2)CCNC4=O)C1` [Compound V-3, (R)—N-(1-acryloylpiperidin-3-yl)-1-oxo-1,2,3,4-tetrahydropyrazino[1,2-a]indole-7-carboxamide], on MK2, the “MK2 Mass Mod” value is listed as “G (mass modification ≤30%)”. In assay [1], the negative-log IC50 (pIC50) is less than 6.00.

Regarding `C=CC(=O)Nc1cc(-c2cc3c(cn2)CCc2c-3[nH]c3c2C(=O)NCC3)ccc1OCCCNC(=O)CCCC(=O)NCCCOCCOCCOCCCNC(=O)CCCC[C@H]1SC[C@H]2NC(=O)N[C@H]21` [Probe 2, N1-(3-(2-acrylamido-4-(7-oxo-6,7,8,9,10,11-hexahydro-5H-pyrido[3′,4′:4,5]pyrrolo[2,3-f]isoquinolin-2-yl)phenoxy)propyl)-N5-(15-oxo-19-((3aR,4R,6aS)-2-oxohexahydro-1H-thieno[3,4-d]imidazol-4-yl)-4,7,10-trioxa-14-azanonadecyl)glutaramide], the pIC50 in assay [1] was more than 7.00.

As for `C=CC(=O)Nc1c(C)c(NC2CCCNC2)nc2ccnn12` (stereo not shown) [IV-b-1, N-(6-methyl-5-(piperidin-3-ylamino)pyrazolo [1,5-a]pyrimidin-7-yl)acrylamide], the negative logarithm of the IC50 (pIC50) in assay [1] is 6.30 to 7.00.
